From patent US9326972B2, “Use of phenylmethimazoles, methimazole derivatives, and tautomeric cyclic thiones for the treatment of autoimmune/inflammatory diseases associated with toll-like receptor overexpression” (Ohio University, priority 2004, dated 2016)

Legend:
Stat1 [1] = assay: Activated Stat1 in kidney and lung lysates of LPS-treated mice (immunoblot); assay type: in vivo, mouse; settings: LPS-treated mice of Table 5
Excerpt: In order to more definitively determine if LPS-induced IFN-β signaling and LPS-induced increases in IRF-1 and IP-10 in vivo might be attenuated by an effect of C10 treatment on Stat1 activation, protein phosphorylation levels of Stat1 in whole tissue lysates were examined in mice from Table 5. […] In contrast neither LPS nor C10 had any effect on total Stat1 in these tissues (FIG. 8, bottom blots). […] Based on literature studies described in immune cells and results we have described in nonimmune cells (FIGS. 4-6; Tables 2, 3), it is reasonable to state that C10 blocks Stat1/IRF-1 signals in vivo as well as in vitro, this is important in the therapy of toxic shock where these genes are not only involved but critical to disease expression. C10 therapy is thus important in reducing pathologic changes in multiple tissues whose organ failure is known to contribute to the signs and symptoms of toxic shock.
Immunoblot analysis of RAW 264.7 and mouse tissues: Nuclear and cytoplasmic extracts for RAW cells were prepared using NE-PER® extraction reagents (Pierce, Rockford, Ill.) in the presence of a protease inhibitor mixture (PMSF, leupeptin, and pepstatin A). […] Binding of HRP-conjugated goat anti-rabbit Ab (sc-2054; Santa Cruz Biotechnology, Inc., Santa Cruz, Calif.) was detected using the ECLplus Western Blotting Detection System (Amersham Biosciences, Piscataway, N.J.).

ICAM-1 and VCAM-1 = assay: Histology and ICAM-1/VCAM-1 immunohistochemistry in organs of LPS-treated mice; assay type: in vivo, mouse
Description: Histology: Tissue from liver, lung, kidney and heart from normal, LPS and LPS plus C-10 treated mice (experiment in Table 5), were fixed in 4%-PBS-formalin overnight. They then were dehydrated serially in alcohols 50%-70%-90%-100%, clarified in chloroform, and embedded in paraffin. Five (5) sections were obtained and mounted on Vectabond™ (Vector Laboratories, Inc. Burlingame, Calif.) pretreated slides. The sections were incubated twice (10 minutes each) in xylol and re-hydrated by serial alcohol treatments, 100%-90-70-50, followed by distilled water. Tissues were stained with Hematoxylin-Eosin using standard protocols, mounted, and observed by optical microscopy in a double blind manner.
Immunohistochemistry (IHC): C10 (pMMI) effects on the over-expression of adhesion molecules induced by LPS were studied in different organs. […] At 18 h after LPS injection, mice were sacrificed and the heart, lung, liver spleen and kidney were removed and fixed in 4% formalin in PBS. The tissue was then dehydrated in serial alcohols (50% v/v, twice; 70% v/v, twice; 80% v/v, twice; 95% v/v, twice; and 100% v/v, twice), cleared in pure chloroform, embedded in paraffin and sectioned ([…] thickness) and mounted on Vectabond™ (Vector Laboratories, Inc. Burlingame, Calif.) pre-treated slides. […]

Stat1 [2] = assay: LPS-induced Stat1 phosphorylation in RAW 264.7 macrophages (immunoblot); assay type: cell-based, mouse
horses [3] = assay: LPS-induced endotoxemia and endotoxic shock in horses; assay type: in vivo, horse; settings: for Dyspnea and Tachypnea / Lung Auscultation / Toxemia and Vascular Congestion / Toxemia, Vascular Congestion, Cyanosis: C10 2 mg/kg iv pretreatment
horses [4] = assay: Horses operated to remove necrotic bowel; assay type: in vivo, horse; settings: 2 mg/kg C10 pre-op and post-op for three days, plus antibiotics
Description: Effect of Phenylmethimazole (C10) on horses subjected to operative procedures to repair necrotic bowels: A group of animals were also subjected to an operative procedure that clamped vessels in a small portion of bowel. Within 2 days, bowel necrosis and peritonitis ensued. At that point animals were re-operated to remove the necrotic bowel and treated with 2 mg/kg C10 or DMSO alone pre-op and post-op for three days. […] Both groups had the same antibiotic therapy as used above.

[5] = LPS 10 μg/kg, C10 (1 mg/kg) iv pretreatment, time 0.15-6 hours

In the case of `Cn1c(-c2ccccc2)cnc1S` [Compound C10, 5-Phenylmethimazole], the “activated (phosphorylated) Stat1 protein levels in kidney and lung” value (Stat1 [1]) is reported as “reduced to basal”, the “microcirculatory damage and inflammatory cellular infiltration in lung” value (ICAM-1 and VCAM-1; H&E, 18 hours) is reported as “ameliorated” and the “ICAM-1 and VCAM-1 over-expression on endothelial cells (lung, liver)” value (ICAM-1 and VCAM-1; immunohistochemistry) is reported as “suppressed”. For the same compound, the “LPS induced Stat1 phosphorylation in cytoplasmic and nuclear fractions” value (Stat1 [2]; RAW 264.7) was “reduce”, the “Stat1 serine phosphorylation at residue 727” value (Stat1 [2]; RAW 264.7, LPS 500 ng/mL 3 hours, 0.5 mM C10) was “reduce” and the “symptoms of endotoxemia (hypotension, hypoxemia, collapse, cardiac anoxia, acute renal failure)” value (horses [3]; LPS) was “clearly blocked”. For the same compound, the “Dyspnea and Tachypnea” value (horses [3]; LPS 10 μg/kg, 1 week) was “Normal”, the “Lung Auscultation” value (horses [3]; LPS 10 μg/kg, 1 week) was “Normal” and the “Toxemia and Vascular Congestion” value (horses [3]; LPS 10 μg/kg, 1 week) was “Normal”. The “Toxemia, Vascular Congestion, Cyanosis” value (horses [3]; LPS 10 μg/kg, 1 week) was “Normal”, the “Dyspnea and Tachypnea” value (horses [3]; LPS 10 μg/kg, time 0.00 hours) was “Normal” and the “Lung Auscultation” value (horses [3]; LPS 10 μg/kg, time 0.00 hours) was “Normal”. For the same compound, the “Toxemia and Vascular Congestion” value (horses [3]; LPS 10 μg/kg, time 0.00 hours) was “Normal”, the “Toxemia, Vascular Congestion, Cyanosis” value (horses [3]; LPS 10 μg/kg, time 0.00 hours) was “Normal” and the “Dyspnea and Tachypnea” value (horses [3]; LPS 10 μg/kg, time 0.15 hours) was “Normal”. The “Toxemia, Vascular Congestion, Cyanosis” value (horses [3]; LPS 10 μg/kg, time 0.15 hours) was “Normal”, the “Dyspnea and Tachypnea” value (horses [3]; LPS 10 μg/kg, time 0.3 hours) was “Normal” and the “Lung Auscultation” value (horses [3]; LPS 10 μg/kg, time 0.3 hours) was “Normal”. For the same compound, the “Toxemia and Vascular Congestion” value (horses [3]; LPS 10 μg/kg, time 0.3 hours) was “Weak Congestion”, the “Toxemia, Vascular Congestion, Cyanosis” value (horses [3]; LPS 10 μg/kg, time 0.3 hours) was “Weak Congestion” and the “Dyspnea and Tachypnea” value (horses [3]; LPS 10 μg/kg, time 3 hours) was “Normal”. For the same compound, the “Lung Auscultation” value (horses [3]; LPS 10 μg/kg, time 3 hours) was “Normal”, the “Toxemia and Vascular Congestion” value (horses [3]; LPS 10 μg/kg, time 3 hours) was “Weak Congestion” and the “Toxemia, Vascular Congestion, Cyanosis” value (horses [3]; LPS 10 μg/kg, time 3 hours) was “Weak Congestion”. For the same compound, the “Dyspnea and Tachypnea” value (horses [3]; LPS 10 μg/kg, time 24 hours) was “Normal”, the “Lung Auscultation” value (horses [3]; LPS 10 μg/kg, time 24 hours) was “Normal” and the “Toxemia and Vascular Congestion” value (horses [3]; LPS 10 μg/kg, time 24 hours) was “Normal”. For the same compound, the “Toxemia, Vascular Congestion, Cyanosis” value (horses [3]; LPS 10 μg/kg, time 24 hours) was “Normal”, the “abdominal pain, diarrhea, collapse or prostration” value (from here on “abdominal pain, diarrhea”) (horses [3]; LPS 10 μg/kg, C10 (1 mg/kg) iv pretreatment, 1 week) was “normal” and the “abdominal pain, diarrhea” value (horses [3]; LPS 10 μg/kg, C10 (1 mg/kg) iv pretreatment, time 0 hours) was “normal”. The “abdominal pain, diarrhea” value (horses [3]; [5]) was “Normal”, the number of stools (horses [3]; [5]) was 1 stool and the “abdominal pain, diarrhea” value (horses [3]; LPS 10 μg/kg, C10 (1 mg/kg) iv pretreatment, time 24 hours) was “normal”. For the same compound, the “recovery after operation to remove necrotic bowel” value (horses [4]) was “full recovery in all cases”.
